Literature values as cited in patent US20080306035A1, “Methods and Compositions for Treating Female Infertility Using Clomiphene” (priority 2005, published 2008).
Counter-ions that a name gives are not always drawn.

Columns and labels:
[1] = in vivo

CCN(CC)CCOc1ccc(C(=C(Cl)c2ccccc2)c2ccccc2)cc1 [clomiphene citrate]
patients treated who achieve pregnancy (patients treated with clomiphene citrate, London et al. 1999): 25-40% | ovulation, share of patients (up to 100 mg clomiphene citrate for 5 days per cycle): about 70%

cis-clomiphene
effect on uterine blood flow [1]: raise uterine blood flow

trans-clomiphene
effect on uterine blood flow [1]: raise uterine blood flow
